The nature of one data set: Water solubility. It counts as physicochemical. The settings on record: for solubility: water, read-out: Wasserlöslichkeit.
A short description of data set [1]: Heat sterilisation of aqueous injection solutions (stability). The format is physicochemical. To be noted: 120 °C for 30 minutes. An excerpt: Beispielsweise werden die nach den vorstehenden Beispielen erhaltenen reinen 5-Alkoxy-2,4,6-trijodisopthalsäurediamide unter sterilen Bedingungen in der gewünschten Menge bidestilliertem Wasser gelöst, filtriert, unter Zusatz von geringen Mengen EDTA-Na2 und Puffersubstanzen auf pH 6,9 bis 7,1 eingestellt, in Serumflaschen oder Ampullen abgefüllt und anschliessend sterilisiert.

Like-named read-outs stand apart in the source and are kept apart here. Some results are limits rather than exact numbers.

Consider “5-(3,6,9-Trioxadecyl)oxy-2,4,6-tribromisophthalsäure-bis(1,3-dihydroxy- isopropylamid) [Beispiel 7]”, for which the Wasserlöslichkeit in the data set “Water solubility” (bei 20 °C) is on record as > 100 % (g/v). For the same compound, in data set [1], the “sterilisieren durch Erhitzen” value is “ohne Schwierigkeiten”.
Take “5-(3,6,9-Triuxadecyl)oxy-2,4,6-trijodisophthalsäure-bis(1,3-dihydroxy- isopropylamid) [Beispiel 2]”: in the data set “Water solubility” (bei Raumtemperatur), the Wasserlöslichkeit is recorded as > 100 % (g/v). The “sterilisieren durch Erhitzen” value in data set [1] is listed as “ohne Schwierigkeiten”.
For the compound `COCCOCCOCCOCCOCCOc1c(I)c(C(=O)NC(CO)CO)c(I)c(C(=O)NC(CO)CO)c1I` [Beispiel 3, 5-(3,6,9,12,15-Pentaoxahexadecyl)oxy-2,4,6-trijod-isophthalsäure-bis-(1,3-dihydroxyisopropylamid)], the solubility in “Water solubility” (bei Raumtemperatur) is over 1000 mg/mL. Moreover, in data set [1], the “sterilisieren durch Erhitzen” value is on record as “ohne Schwierigkeiten”.
For `COCCOCCOCCOCCOCCOCCOCCOc1c(I)c(C(=O)NC(CO)CO)c(I)c(C(=O)NC(CO)CO)c1I` [Beispiel 4, 5-(3,6,9,12,15,18,21-Heptaoxadocosyl)oxy-2,4,6-trijodisophthalsäure-bis(1,3-dihydroxyisopropylamid)], the solubility in “Water solubility” (bei 20 °C) is over 1000 mg/mL. Further, in data set [1], the “sterilisieren durch Erhitzen” value was “ohne Schwierigkeiten”.
As for `O=C(NC(CO)CO)c1c(I)c(OCCOCCOCCO)c(I)c(C(=O)NC(CO)CO)c1I` [Beispiel 5], the solubility in “Water solubility” (bei Raumtemperatur) was over 1000 mg/mL. The “sterilisieren durch Erhitzen” value in data set [1] is listed as “ohne Schwierigkeiten”.

The values above are taken from patent EP0185130A1, “5-Alkoxy-2,4,6-triodo or tribromo-isophthalic-acid derivatives, process for their preparation and X-ray contrast agents containing them” (BRACCO INDUSTRIA CHIMICA Società per Azioni, priority 1984, dated 1986).
